Data: US8828401B2, “Cytotoxic peptides and antibody drug conjugates thereof” (Pfizer Inc., priority 2011, dated 2014)
pIC50: −log10 of the molar value. Starred links: 1 amine or outer side, 2 acyl side, 3 side chain; linkers in the order of their positions; H or OH if unused. Non-standard residues stand in square brackets, D forms with d. Residues, ends and D or L forms follow the SMILES beside them. *: point of attachment. Dolaproine = CO[C@@H]([C@@H]1CCCN1)[C@@H](C)C(=O)O; X11 = O=C([C@@H](N[*:1])[C@H]1Cc2ccccc21)[*:2]; X2 = O=C([C@H](N[*:1])C1(c2ccccc2)CC1)[*:2]; Dil = CC[C@H](C)[C@H](NC)[C@@H](CC(=O)O)OC; Doe = c1ccc(C[C@H](N*)c2nccs2)cc1; d(αMeV) = CC(C)[C@@](C)(N)C(=O)O; d(αMeP) = C[C@]1(C(=O)O)CCCN1; αMeP = C[C@@]1(C(=O)O)CCCN1; X13 = c1ccc(C2(CN*)CC2)cc1; Iva = CC[C@](C)(N)C(=O)O; NMeAib = CNC(C)(C)C(=O)O; X4 = CN(C)C(C)(C)C(=O)*; X8 = C1=CC=CC(CCN*)C=C1; Ac3c = NC1(C(=O)O)CC1; Aib = CC(C)(N)C(=O)O; OtBu = CC(C)(C)O*; OAll = C=CCO*; NHPr = CCCN*

Columns and labels:
Assay in all cases: In vitro cell assay, MTS cell viability 96 hours after treatment
Format in all cases: cell-based
BT474 (breast cancer) = conditions: Homo sapiens, BT-474, BT474 cells; geometric mean; cytotoxic peptides; read-out: BT474 GMEAN IC50
Description: (§1) Cells were treated with 3-fold serially diluted antibody-drug conjugates or free compounds (i.e., no antibody conjugated to the drug) in duplicate at 10 concentrations. Cell viability was determined by CellTiter 96® AQueous One Solution Cell Proliferation MTS Assay (Promega, Madison Wis.) 96 hours after treatment. Relative cell viability was determined as percentage of untreated control.

N87 (gastric cancer) = conditions: read-out: N87 GMEAN IC50, N87 cells; geometric mean; cytotoxic peptides
Description: as §1

[1] = tested on: MDA-MB-361-DYT2 (breast cancer); conditions: read-out: MDA-MB-361-DYT2 GMEAN IC50, MDA-MB-361-DYT2 cells; geometric mean; cytotoxic peptides
Description: as §1

| Structure (SMILES) | pIC50 (BT474 (breast cancer)) | pIC50 (N87 (gastric cancer)) | pIC50 [1] |
| --- | --- | --- | --- |
| CC[C@H](C)[C@@H]([C@@H](CC(=O)N1CCC[C@H]1[C@H](OC)[C@@H](C)C(=O)N[C@@H](Cc1ccccc1)C(=O)OC)OC)N(C)C(=O)[C@@H](NC(=O)[C@@]1(C)CCCCN1)C(C)C (single isomer, unassigned) [#159] | 10.15 | 10.12 |  |
| CC[C@H](C)[C@@H]([C@@H](CC(=O)N1CCC[C@H]1[C@H](OC)[C@@H](C)C(=O)N[C@@H](Cc1ccccc1)c1nccs1)OC)N(C)C(=O)[C@@H](NC(=O)C1(N)CC1)C(C)C [#51, N^2-[(1-aminocyclopropyl)carbonyl]-N-[(3R,4S,5S)-3-methoxy-1-{(2S)-2-[(1R,2R)-1-methoxy-2-methyl-3-oxo-3-{[(1S)-2-phenyl-1-(1,3-thiazol-2-yl)ethyl]amino}propyl]pyrrolidin-1-yl}-5-methyl-1-oxoheptan-4-yl]-N-methyl-L-valinamide] (H-[Ac3c]V[Dil][Dolaproine]-Doe) | > 9.22 | 8.44 |  |
| CC[C@H](C)[C@@H]([C@@H](CC(=O)N1CCC[C@H]1[C@H](OC)[C@@H](C)C(=O)N[C@@H](Cc1ccccc1)c1nccs1)OC)N(C)C(=O)[C@@H](NC(=O)C(C)(C)N)C(C)C [#54, 2-methylalanyl-N-[(3R,4S,5S)-3-methoxy-1-{(2S)-2-[(1R,2R)-1-methoxy-2-methyl-3-oxo-3-{[(1S)-2-phenyl-1-(1,3-thiazol-2-yl)ethyl]amino}propyl]pyrrolidin-1-yl}-5-methyl-1-oxoheptan-4-yl]-N-methyl-L-valinamide] (H-[Aib]V[Dil][Dolaproine]-Doe) | > 9.88 | > 9.66 |  |
| CC[C@H](C)[C@@H]([C@@H](CC(=O)N1CCC[C@H]1[C@H](OC)[C@@H](C)C(=O)NCC1(c2ccccc2)CC1)OC)N(C)C(=O)[C@@H](NC(=O)C(C)(C)N)C(C)C [#60, 2-methylalanyl-N-[(3R,4S,5S)-3-methoxy-1-{(2S)-2-[(1R,2R)-1-methoxy-2-methyl-3-oxo-3-{[(1-phenylcyclopropyl)methyl]amino}propyl]pyrrolidin-1-yl}-5-methyl-1-oxoheptan-4-yl]-N-methyl-L-valinamide] (H-[Aib]V[Dil][Dolaproine]-X13) | 9.28 |  | 9.02 |
| CC[C@H](C)[C@@H]([C@@H](CC(=O)N1CCC[C@H]1[C@H](OC)[C@@H](C)C(=O)N[C@@H](Cc1ccccc1)C(=O)O)OC)N(C)C(=O)[C@@H](NC(=O)C(C)(C)N)C(C)C [#69, 2-methylalanyl-N-[(3R,4S,5S)-1-{(2S)-2-[(1R,2R)-3-{[(1S)-1-carboxy-2-phenylethyl]amino}-1-methoxy-2-methyl-3-oxopropyl]pyrrolidin-1-yl}-3-methoxy-5-methyl-1-oxoheptan-4-yl]-N-methyl-L-valinamide] (H-[Aib]V[Dil][Dolaproine]F-OH) | 7.10 | 7.18 |  |
| CC[C@H](C)[C@@H]([C@@H](CC(=O)N1CCC[C@H]1[C@H](OC)[C@@H](C)C(=O)N[C@@H](Cc1ccccc1)C(=O)OC)OC)N(C)C(=O)[C@@H](NC(=O)[C@]1(C)CCCN1)C(C)C [#117, 2-methyl-L-prolyl-N-{(1S,2R)-4-{(2S)-2-[(1R,2R)-3-{[(1S)-1-benzyl-2-methoxy-2-oxoethyl]amino}-1-methoxy-2-methyl-3-oxopropyl]pyrrolidin-1-yl}-2-methoxy-1-[(1S)-1-methylpropyl]-4-oxobutyl}-N-methyl-L-valinamide] (H-[αMeP]V[Dil][Dolaproine]F-OMe) | 10.02 |  | 9.93 |
| CC[C@H](C)[C@@H]([C@@H](CC(=O)N1CCC[C@H]1[C@H](OC)[C@@H](C)C(=O)N[C@@H](Cc1ccccc1)C(=O)OC(C)(C)C)OC)N(C)C(=O)[C@@H](NC(=O)C(C)(C)NC)C(C)C [#130, N,2-dimethylalanyl-N-[(3R,4S,5S)-1-{(2S)-2-[(1R,2R)-3-{[(2S)-1-tert-butoxy-1-oxo-3-phenylpropan-2-yl]amino}-1-methoxy-2-methyl-3-oxopropyl]pyrrolidin-1-yl}-3-methoxy-5-methyl-1-oxoheptan-4-yl]-N-methyl-L-valinamide] (H-[NMeAib]V[Dil][Dolaproine]F-OtBu) | 10.30 |  | 10.41 |
| CC[C@H](C)[C@@H]([C@@H](CC(=O)N1CCC[C@H]1[C@H](OC)[C@@H](C)C(=O)N[C@@H](Cc1ccccc1)C(=O)OC)OC)N(C)C(=O)[C@@H](NC(=O)[C@@]1(C)CCCN1)C(C)C [#131, 2-methyl-D-prolyl-N-[(3R,4S,5S)-3-methoxy-1-{(2S)-2-[(1R,2R)-1-methoxy-3-{[(2S)-1-methoxy-1-oxo-3-phenylpropan-2-yl]amino}-2-methyl-3-oxopropyl]pyrrolidin-1-yl}-5-methyl-1-oxoheptan-4-yl]-N-methyl-L-valinamide] (H-[d(αMeP)]V[Dil][Dolaproine]F-OMe) | 10.14 |  |  |
| CC[C@H](C)[C@@H]([C@@H](CC(=O)N1CCC[C@H]1[C@H](OC)[C@@H](C)C(=O)N[C@@H](Cc1ccccc1)C(N)=O)OC)N(C)C(=O)[C@@H](NC(=O)C(C)(C)NC)C(C)C [#141, N,2-dimethylalanyl-N-{(1S,2R)-4-{(2S)-2-[(1R,2R)-3-{[(1S)-2-amino-1-benzyl-2-oxoethyl]amino}-1-methoxy-2-methyl-3-oxopropyl]pyrrolidin-1-yl}-2-methoxy-1-[(1S)-1-methylpropyl]-4-oxobutyl}-N-methyl-L-valinamide] (H-[NMeAib]V[Dil][Dolaproine]F-NH2) | 8.47 | 8.52 |  |
| CCCNC(=O)[C@H](Cc1ccccc1)NC(=O)[C@H](C)[C@@H](OC)[C@@H]1CCCN1C(=O)C[C@@H](OC)[C@H]([C@@H](C)CC)N(C)C(=O)[C@@H](NC(=O)C(C)(C)NC)C(C)C [#142, N,2-dimethylalanyl-N-{(1S,2R)-4-{(2S)-2-[(1R,2R)-3-{[(1S)-1-benzyl-2-oxo-2-(propylamino)ethyl]amino}-1-methoxy-2-methyl-3-oxopropyl]pyrrolidin-1-yl}-2-methoxy-1-[(1S)-1-methylpropyl]-4-oxobutyl}-N-methyl-L-valinamide] (H-[NMeAib]V[Dil][Dolaproine]F-NHPr) | 9.55 |  |  |
| CC[C@H](C)[C@@H]([C@@H](CC(=O)N1CCC[C@H]1[C@H](OC)[C@@H](C)C(=O)N[C@@H](Cc1ccccc1)C(=O)OC)OC)N(C)C(=O)[C@@H](NC(=O)[C@](C)(N)C(C)C)C(C)C [#146, 3-methyl-D-isovalyl-N-{(1S,2R)-4-{(2S)-2-[(1R,2R)-3-{[(1S)-1-benzyl-2-methoxy-2-oxoethyl]amino}-1-methoxy-2-methyl-3-oxopropyl]pyrrolidin-1-yl}-2-methoxy-1-[(1S)-1-methylpropyl]-4-oxobutyl}-N-methyl-L-valinamide] (H-[d(αMeV)]V[Dil][Dolaproine]F-OMe) | 9.36 | 9.71 |  |
| CC[C@H](C)[C@@H]([C@@H](CC(=O)N1CCC[C@H]1[C@H](OC)[C@@H](C)C(=O)N[C@@H](Cc1ccccc1)C(=O)OC)OC)N(C)C(=O)[C@@H](NC(=O)[C@@](C)(N)CC)C(C)C [#148, L-isovalyl-N-{(1S,2R)-4-{(2S)-2-[(1R,2R)-3-{[(1S)-1-benzyl-2-methoxy-2-oxoethyl]amino}-1-methoxy-2-methyl-3-oxopropyl]pyrrolidin-1-yl}-2-methoxy-1-[(1S)-1-methylpropyl]-4-oxobutyl}-N-methyl-L-valinamide] (H-[Iva]V[Dil][Dolaproine]F-OMe) | 9.37 |  |  |
| CC[C@H](C)[C@@H]([C@@H](CC(=O)N1CCC[C@H]1[C@H](OC)[C@@H](C)C(=O)N[C@@H](Cc1ccccc1)c1nccs1)OC)N(C)C(=O)[C@@H](NC(=O)[C@@]1(C)CCCCN1)C(C)C [#190, (2R)—N-[(2S)-1-{[(3R,4S,5S)-3-methoxy-1-{(2S)-2-[(1R,2R)-1-methoxy-2-methyl-3-oxo-3-{[(1S)-2-phenyl-1-(1,3-thiazol-2-yl)ethyl]amino}propyl]pyrrolidin-1-yl}-5-methyl-1-oxoheptan-4-yl](methyl)amino}-3-methyl-1-oxobutan-2-yl]-2-methylpiperidine-2-carboxamide] | 9.87 | 10.18 |  |
| CC[C@H](C)[C@@H]([C@@H](CC(=O)N1CCC[C@H]1[C@H](OC)[C@@H](C)C(=O)N[C@@H](C(=O)OC)C1(c2ccccc2)CC1)OC)N(C)C(=O)[C@@H](NC(=O)C(C)(C)N)C(C)C [#222] (H-[Aib]V[Dil][Dolaproine][X2]-OMe) | 9.80 | 9.45 |  |
| CC[C@H](C)[C@@H]([C@@H](CC(=O)N1CCC[C@H]1[C@H](OC)[C@@H](C)C(=O)N[C@H](C(=O)OC)[C@H]1Cc2ccccc21)OC)N(C)C(=O)[C@@H](NC(=O)C(C)(C)N)C(C)C [#225] (H-[Aib]V[Dil][Dolaproine][X11]-OMe) | 8.46 | 7.98 |  |
| CC[C@H](C)[C@@H]([C@@H](CC(=O)N1CCC[C@H]1[C@H](OC)[C@@H](C)C(=O)N[C@@H](Cc1ccccc1)C(=O)OC)OC)N(C)C(=O)[C@@H](NC(=O)C(C)(C)N(C)C)C(C)C [#228] (X4-V[Dil][Dolaproine]F-OMe) | 9.98 | 10.05 |  |
| C=CCOC(=O)[C@H](Cc1ccccc1)NC(=O)[C@H](C)[C@@H](OC)[C@@H]1CCCN1C(=O)C[C@@H](OC)[C@H]([C@@H](C)CC)N(C)C(=O)[C@@H](NC(=O)C(C)(C)NC)C(C)C [#238] (H-[NMeAib]V[Dil][Dolaproine]F-OAll) | 9.86 | 10.11 |  |
| CC[C@H](C)[C@@H]([C@@H](CC(=O)N1CCC[C@H]1[C@H](OC)[C@@H](C)C(=O)NCCC1C=CC=CC=C1)OC)N(C)C(=O)[C@@H](NC(=O)[C@@]1(C)CCCN1)C(C)C [#247] (H-[d(αMeP)]V[Dil][Dolaproine]-X8) | 9.00 | 8.69 |  |
